The supplement of paper PMC5752671

How the values were obtained:
Assay in all cases: area under dose-response curve (cell viability) (AUC (arbitrary, % viability x log concentration)); higher = less sensitive (more viable)
Conditions in all cases: 4 days
OCI-AML2 = test system: OCI-AML2
Experimental: (§1)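 14 AML cell lines were plated on extracellular-matrix-coated 384-well plates and exposed to each drug at 8 concentrations (4-5 logs within 1e-12 to 1e-4 M, tailored per drug) in duplicate. Viability was read by CellTiter-Glo after 4 days. The dose-response (averaged over duplicates) was fitted to a 4-parameter sigmoid, and the area under the curve was taken as the sensitivity measure.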

NB4 = test system: NB4
Experimental: as §1

MOLM/13 = test system: MOLM/13
Experimental: as §1

U937 = test system: U937
Experimental: as §1

EOL-1 = test system: EOL-1
Experimental: as §1

OCI-AML3 = test system: OCI-AML3
Experimental: as §1

SKM1 = test system: SKM1
Experimental: as §1

MV4.11 = test system: MV4.11
Experimental: as §1

In the case of CC(C)CC(=O)Nc1n[nH]c2c1CN(C(=O)C1CCN(C)CC1)C2(C)C, the “area under dose-response curve” value (OCI-AML2) is reported as 268, the “area under dose-response curve” value (NB4) is reported as 258 and the “area under dose-response curve” value (MOLM/13) is reported as 329. The “area under dose-response curve” value (U937) was 283, the “area under dose-response curve” value (EOL-1) was 353 and the “area under dose-response curve” value (OCI-AML3) was 281. The “area under dose-response curve” value (SKM1) was 336 and the “area under dose-response curve” value (MV4.11) was 352.

With CN1CC[C@@H](NC(=O)Nc2ccc(C#N)cc2)C[C@@H]1c1nc2ccccc2[nH]1 the “area under dose-response curve” value (OCI-AML2) was 559, the “area under dose-response curve” value (NB4) was 607 and the “area under dose-response curve” value (MOLM/13) was 583. For the same molecule, the “area under dose-response curve” value (U937) was 608, the “area under dose-response curve” value (EOL-1) was 642 and the “area under dose-response curve” value (OCI-AML3) was 588. For the same molecule, the “area under dose-response curve” value (SKM1) was 624 and the “area under dose-response curve” value (MV4.11) was 584.

For COc1ccc2c(c1)CCC1C2CCC2(C)C(NCCCCCCN3C(=O)C=CC3=O)CCC12 (centres undefined), the “area under dose-response curve” value (OCI-AML2) was 656, the “area under dose-response curve” value (NB4) was 645 and the “area under dose-response curve” value (MOLM/13) was 658. For the same molecule, the “area under dose-response curve” value (U937) was 589, the “area under dose-response curve” value (EOL-1) was 523 and the “area under dose-response curve” value (OCI-AML3) was 547. For the same molecule, the “area under dose-response curve” value (SKM1) was 608 and the “area under dose-response curve” value (MV4.11) was 644.

Cc1cnc(Nc2ccc(OCCN3CCCC3)cc2)nc1Nc1cccc(S(=O)(=O)NC(C)(C)C)c1 was tested, and the “area under dose-response curve” value (OCI-AML2) was 505, the “area under dose-response curve” value (NB4) was 563 and the “area under dose-response curve” value (MOLM/13) was 400. For the same molecule, the “area under dose-response curve” value (U937) was 562, the “area under dose-response curve” value (EOL-1) was 389 and the “area under dose-response curve” value (OCI-AML3) was 540. The “area under dose-response curve” value (SKM1) was 518 and the “area under dose-response curve” value (MV4.11) was 392.

In the case of NC(=O)c1ccc(-c2nc(-c3ccccn3)c(-c3ccc4c(c3)OCO4)[nH]2)cc1, the “area under dose-response curve” value (OCI-AML2) is reported as 619, the “area under dose-response curve” value (NB4) is reported as 600 and the “area under dose-response curve” value (MOLM/13) is reported as 692. The “area under dose-response curve” value (U937) was 695, the “area under dose-response curve” value (EOL-1) was 600 and the “area under dose-response curve” value (OCI-AML3) was 712. The “area under dose-response curve” value (SKM1) was 722 and the “area under dose-response curve” value (MV4.11) was 665.

In the case of O=C(NC[C@H](O)CO)c1ccncc1Nc1ccc(I)cc1F, the “area under dose-response curve” value (OCI-AML2) is reported as 109, the “area under dose-response curve” value (NB4) is reported as 355 and the “area under dose-response curve” value (MOLM/13) is reported as 520. For the same molecule, the “area under dose-response curve” value (U937) was 536, the “area under dose-response curve” value (EOL-1) was 347 and the “area under dose-response curve” value (OCI-AML3) was 150. The “area under dose-response curve” value (SKM1) was 194 and the “area under dose-response curve” value (MV4.11) was 432.

For O=C1NC(=O)/C(=C\c2ccc3nccnc3c2)S1, the “area under dose-response curve” value (OCI-AML2) was 634, the “area under dose-response curve” value (NB4) was 605 and the “area under dose-response curve” value (MOLM/13) was 637. For the same molecule, the “area under dose-response curve” value (U937) was 648, the “area under dose-response curve” value (EOL-1) was 679 and the “area under dose-response curve” value (OCI-AML3) was 647. The “area under dose-response curve” value (SKM1) was 637 and the “area under dose-response curve” value (MV4.11) was 665.

In the case of OCCn1cc(-c2cnc3nnn(Cc4ccc5ncccc5c4)c3n2)cn1, the “area under dose-response curve” value (OCI-AML2) is reported as 540, the “area under dose-response curve” value (NB4) is reported as 567 and the “area under dose-response curve” value (MOLM/13) is reported as 566. The “area under dose-response curve” value (U937) was 604, the “area under dose-response curve” value (EOL-1) was 616 and the “area under dose-response curve” value (OCI-AML3) was 552. The “area under dose-response curve” value (SKM1) was 616 and the “area under dose-response curve” value (MV4.11) was 557.

Nc1ncnc2c1c(I)cn2[C@@H]1O[C@H](CO)[C@@H](O)[C@H]1O [5-Iodotubercidin] was tested, and the “area under dose-response curve” value (OCI-AML2) was 489, the “area under dose-response curve” value (NB4) was 516 and the “area under dose-response curve” value (MOLM/13) was 427. The “area under dose-response curve” value (U937) was 501, the “area under dose-response curve” value (EOL-1) was 470 and the “area under dose-response curve” value (OCI-AML3) was 571. For the same molecule, the “area under dose-response curve” value (SKM1) was 559 and the “area under dose-response curve” value (MV4.11) was 313.

With CC1(C)CCC(c2ccc(Cl)cc2)=C(CN2CCN(c3ccc(C(=O)NS(=O)(=O)c4ccc(N[C@H](CCN5CCOCC5)CSc5ccccc5)c(S(=O)(=O)C(F)(F)F)c4)cc3)CC2)C1 [ABT-263] the “area under dose-response curve” value (OCI-AML2) was 504, the “area under dose-response curve” value (NB4) was 642 and the “area under dose-response curve” value (MOLM/13) was 542. The “area under dose-response curve” value (U937) was 620, the “area under dose-response curve” value (EOL-1) was 495 and the “area under dose-response curve” value (OCI-AML3) was 643. For the same molecule, the “area under dose-response curve” value (SKM1) was 626 and the “area under dose-response curve” value (MV4.11) was 526.

With Cl[TeH]1(Cl)(Cl)OCCO1.N [AS101] the “area under dose-response curve” value (OCI-AML2) was 547, the “area under dose-response curve” value (NB4) was 542 and the “area under dose-response curve” value (MOLM/13) was 556. The “area under dose-response curve” value (U937) was 584, the “area under dose-response curve” value (EOL-1) was 626 and the “area under dose-response curve” value (OCI-AML3) was 571. For the same molecule, the “area under dose-response curve” value (SKM1) was 605 and the “area under dose-response curve” value (MV4.11) was 582.

CN1CCN(CCOc2cc(OC3CCOCC3)c3c(Nc4c(Cl)ccc5c4OCO5)ncnc3c2)CC1 [AZD0530] was tested, and the “area under dose-response curve” value (OCI-AML2) was 646, the “area under dose-response curve” value (NB4) was 614 and the “area under dose-response curve” value (MOLM/13) was 671. The “area under dose-response curve” value (U937) was 663, the “area under dose-response curve” value (EOL-1) was 565 and the “area under dose-response curve” value (OCI-AML3) was 705. For the same molecule, the “area under dose-response curve” value (SKM1) was 736 and the “area under dose-response curve” value (MV4.11) was 617.

NC(=O)Nc1cc(-c2cccc(F)c2)sc1C(=O)N[C@H]1CCCNC1 [AZD7762] was tested, and the “area under dose-response curve” value (OCI-AML2) was 348, the “area under dose-response curve” value (NB4) was 378 and the “area under dose-response curve” value (MOLM/13) was 5.84. The “area under dose-response curve” value (U937) was 341, the “area under dose-response curve” value (EOL-1) was 6.62 and the “area under dose-response curve” value (OCI-AML3) was 415. The “area under dose-response curve” value (SKM1) was 271 and the “area under dose-response curve” value (MV4.11) was 29.7.

With Cc1cc(C(=O)NOCCO)c(Nc2ccc(I)cc2F)n(C)c1=O [AZD8330] the “area under dose-response curve” value (OCI-AML2) was 33.6, the “area under dose-response curve” value (NB4) was 348 and the “area under dose-response curve” value (MOLM/13) was 416. For the same molecule, the “area under dose-response curve” value (U937) was 465, the “area under dose-response curve” value (EOL-1) was 169 and the “area under dose-response curve” value (OCI-AML3) was 87.3. The “area under dose-response curve” value (SKM1) was 44.2 and the “area under dose-response curve” value (MV4.11) was 317.

For Cn1cnc2c(F)c(Nc3ccc(Br)cc3Cl)c(C(=O)NOCCO)cc21 [AZD-6244], the “area under dose-response curve” value (OCI-AML2) was 338, the “area under dose-response curve” value (NB4) was 519 and the “area under dose-response curve” value (MOLM/13) was 662. For the same molecule, the “area under dose-response curve” value (U937) was 657, the “area under dose-response curve” value (EOL-1) was 509 and the “area under dose-response curve” value (OCI-AML3) was 384. The “area under dose-response curve” value (SKM1) was 358 and the “area under dose-response curve” value (MV4.11) was 565.

COc1ccc(-c2ccc3ncc4c(c3c2)n(-c2ccc(N3CCNCC3)c(C(F)(F)F)c2)c(=O)n4C)cn1 [BGT-226] was tested, and the “area under dose-response curve” value (OCI-AML2) was 356, the “area under dose-response curve” value (NB4) was 448 and the “area under dose-response curve” value (MOLM/13) was 403. For the same molecule, the “area under dose-response curve” value (U937) was 325, the “area under dose-response curve” value (EOL-1) was 344 and the “area under dose-response curve” value (OCI-AML3) was 412. For the same molecule, the “area under dose-response curve” value (SKM1) was 369 and the “area under dose-response curve” value (MV4.11) was 399.

CC[C@@H]1C(=O)N(C)c2cnc(Nc3ccc(C(=O)NC4CCN(C)CC4)cc3OC)nc2N1C1CCCC1 [BI-2536] was tested, and the “area under dose-response curve” value (OCI-AML2) was 5.96, the “area under dose-response curve” value (NB4) was 18.2 and the “area under dose-response curve” value (MOLM/13) was 7.65. For the same molecule, the “area under dose-response curve” value (U937) was 5.36, the “area under dose-response curve” value (EOL-1) was 10.5 and the “area under dose-response curve” value (OCI-AML3) was 6.18. For the same molecule, the “area under dose-response curve” value (SKM1) was 110 and the “area under dose-response curve” value (MV4.11) was 4.22.

In the case of CN(C)C/C=C/C(=O)Nc1cc2c(Nc3ccc(F)c(Cl)c3)ncnc2cc1O[C@H]1CCOC1 [BIBW 2992], the “area under dose-response curve” value (OCI-AML2) is reported as 600, the “area under dose-response curve” value (NB4) is reported as 598 and the “area under dose-response curve” value (MOLM/13) is reported as 625. The “area under dose-response curve” value (U937) was 625, the “area under dose-response curve” value (EOL-1) was 477 and the “area under dose-response curve” value (OCI-AML3) was 594. For the same molecule, the “area under dose-response curve” value (SKM1) was 561 and the “area under dose-response curve” value (MV4.11) was 535.
